Test results taken from patent US5977065A, “Bacterial nitroreductase for the reduction of CB1954 and analogues thereof to a cytotoxic form” (Cancer Research Campaign Technology Limited, priority 1991, dated 1999).

Key:
[1] = target: T1, Walker NAD(P)H dehydrogenase (quinone) EC 1.6.99.2 (Rattus norvegicus, UniProt P05982); test: Enzymatic reduction of CB 1954 followed by HPLC; type: biochemical; details: reduction of 50 μM of CB 1954
T1 construct: the enzyme isolated from the Walker tumour, EC.1.6.99.2; from tissue; host or cells: Walker tumour (Walker cell)
T1 sequence (P05982 2-274 limits assumed): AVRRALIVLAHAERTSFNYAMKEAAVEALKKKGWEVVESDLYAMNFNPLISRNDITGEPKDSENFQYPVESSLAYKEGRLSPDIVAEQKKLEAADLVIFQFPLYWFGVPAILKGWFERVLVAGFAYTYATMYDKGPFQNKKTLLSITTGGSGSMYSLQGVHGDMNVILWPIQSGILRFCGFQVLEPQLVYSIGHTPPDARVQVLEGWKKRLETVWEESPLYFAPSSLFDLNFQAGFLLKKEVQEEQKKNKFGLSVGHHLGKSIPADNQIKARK
Protocol: Enzymatic reduction of CB 1954. […] At various times aliquots (10 μl) were injected onto a Partisphere SCX (110×4.7 mm) HPLC column and eluted isocratically (2 ml/min) with 100 mM NaH2 PO4.
(§1) The eluate was continuously monitored for adsorption at 310, 260 and 360 nm and the spectra of eluting components recorded using a diode-array detector. Samples (0.5 ml) were collected and the tritium activity of each determined by liquid scintillation counting. This separation system could resolve all the expected reduction products.
(§2) To confirm further the identity of any reduction products, the above reduction mixture was also injected onto an ODS-5 reverse phase HPLC column and eluted (1 ml/min) with a methanol gradient (0-30% linear over 30 min, 30-100% linear over 10 min.) in 0.1 M sodium phosphate buffer (pH 7).

[2] = test system: V79 cells; test: Survival (colony-forming ability) of V79 cells treated with CB 1954 in the presence of E. coli B nitroreductase (Table 4); type: cell-based, Hamster
Protocol: (§3) E. coli B nitroreductase. All treatments were for 2 hours at 37°
(§4) cells were then plated out for their resulting colony-forming ability.
(§5) nitroreductase concentration was 2 μg/ml and NADH was used as a […]

[3] = target: T2, E. coli nitroreductase (Escherichia coli, UniProt P38489); test: Enzymatic reduction of CB 1954 followed by HPLC; type: biochemical, E. coli B
T2 construct: endogenous in cells; host or cells: E. coli B cell paste; endogenous enzyme purified by Phenyl-Sepharose and Q-Sepharose chromatography, not recombinant
Protocol: Enzymatic reduction of CB 1954. CB 1954 (100 μM and also containing [U-^3 H] C.B 1954 at 1.6×10^5 dpm per nmole), NADH or NAD(P)H (500 μM) were incubated with the active enzyme obtained as described in Example 1, (generally 2 μg/ml E. coli nitroreductase or 35 μg/ml Walker NAD(P)H dehydrogenase (quinone) EC 1.6.99.2) in 10 mM sodium phosphate buffer (pH 7) under either air or helium. At various times aliquots (10 μl) were injected onto a Partisphere SCX (110×4.7 mm) HPLC column and eluted isocratically (2 ml/min) with 100 mM NaH2 PO4.
as §1, §2

[4] = target: T2, E. coli nitroreductase; test: Substrate specificity: relative rate of NADH oxidation by HPLC (Table 5); type: biochemical; details: relative to CB 1954; 37° C. in air, NADH 500 μM, substrate 100 μM
Protocol: The ability of the E. coli nitroreductase of the invention to reduce nitro-compounds other than CB 1954 was determined by HPLC by following the decrease in the peak area of NADH resulting from its oxidation. The experiments were carried out as above but the aliquots were injected onto a Partisphere SAX (110×4.7 mm) HPLC column and eluted isocratically (1 ml/min) with 75 mM NaH2 PO4.
The relative rates of reduction of various nitrobenzamides and
nitrobenzenes with E. coli nitroreductase enzyme. Reduction
rates were determined by the resulting oxidation of NADH. All
reactions were carried out at 37° C. in air, with NADH (500
electron donor, at an initial substrate concentration of 100 μM.

[5] = target: T3, E. coli B nitroreductase (Escherichia coli, UniProt P38489); test: % drug reduction in the V79 incubations (Table 4); type: biochemical
T3 construct: endogenous in cells; host or cells: E. coli B cell paste; endogenous enzyme purified by Phenyl-Sepharose and Q-Sepharose chromatography, not recombinant
Protocol: The effect of CB 1954 on the survival of V79 cells in the presence of the
as §3, §4, §5

[6] = target: T3, E. coli B nitroreductase; test: Enzyme kinetic and inhibition studies; type: biochemical; details: saturating conditions
Protocol: Protein concentration was determined using the a conventional protein assay (Bio-Rad) calibrated against bovine serum albumin.

[7] = target: T3, E. coli B nitroreductase; test: Formation of mitomycin C by the nitroreductase upon prodrug VII (HPLC); type: biochemical; details: VII 100 μM, 500 μM NADH, enzyme 5 μg/ml, pH7, 37° C.
Protocol: Prodrug VII (100 μM) and cofactor (500 μM NADH) were incubated with enzyme (5 μg/ml E. coli B nitroreductase of Example 1) in 10 mM sodium phosphate buffer (pH7) in air at 37° C. At various times aliquots (10 μl) were injected onto a Partisphere C18 reverse-phase (150×4.7mm) HPLC column and eluted isocratically (2.0 ml/min) with 50% methanol in water. The eluate was continuously monitored for absorption at 260 and 340 nm and the concentration of the drugs calculated by integration of the peak corresponding to the compound on the HPLC trace.

[8] = target: T4, Walker DT diaphorase (Rattus norvegicus, UniProt P05982); test: Cofactor ability for the reduction of CB 1954 (FIG. 1); type: biochemical; details: CB 1954 100 μM, reduced cofactor 500 μM
T4 construct: the enzyme isolated from the Walker tumour, EC.1.6.99.2; from tissue; host or cells: Walker tumour (Walker cell)
T4 sequence (P05982 2-274 limits assumed): T1 sequence (P05982 2-274 limits assumed)
Protocol: (§6) At various times aliquots (10 μl) were injected onto a Partisil SCX (240×4.7 mm) HPLC column and eluted isocratically (2 ml/min) with 100 mM NaH2 PO4. The eluate was continuously monitored for absorption at 320, 260 and 360 nm and the concentration of CB 1954 calculated by integration of the peak corresponding to this compound on the HPLC trace.
(§7) The ability of the nitroreductase enzyme to be able to use a synthetic cofactor in place of NADH or NADPH for the reduction of CB 1954 is shown in FIG. 1. […] Therefore 1,4-dihydro-nicotinic acid riboside is a selective cofactor for the E. coli nitroreductase enzyme and cannot be used by mammalian DT diaphorase.

[9] = target: T2, E. coli nitroreductase; test: as above; type: biochemical; details: compared with NADH; CB 1954 100 μM, reduced cofactor 500 μM
Protocol: as §6, §7

[10] = NR 2 μg/ml + 50 μM CB 1954, no NADH
[11] = NR 2 μg/ml + CB 1954 + 500 μM NADH

T2 sequence (P38489 whole entry): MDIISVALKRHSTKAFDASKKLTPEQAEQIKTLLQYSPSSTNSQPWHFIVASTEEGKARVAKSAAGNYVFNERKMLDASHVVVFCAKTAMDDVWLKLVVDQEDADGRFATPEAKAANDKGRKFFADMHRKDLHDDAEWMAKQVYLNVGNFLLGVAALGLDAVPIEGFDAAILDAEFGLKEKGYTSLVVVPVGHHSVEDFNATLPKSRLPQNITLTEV
T3 sequence (P38489 whole entry): as above

NC(=O)c1cc(N2CC2)c([N+](=O)[O-])cc1[N+](=O)[O-] [CB 1954, 5-(aziridin-1-yl)-2,4-dinitrobenzamide]
4-hydroxylamine formed [1]: 50 µM
% SURVIVAL ([2]; 50 μM CB 1954, 2 hours 37° C.): 100%
% SURVIVAL ([2]; NADH + CB 1954, no enzyme, 2 hours 37° C.): 41%
% SURVIVAL [2, 10]: 99%
% SURVIVAL [2, 11]: 0.024%
rate of reduction of CB 1954 or product formation ([3]; co-factor NAD(P)H or NADH, under helium): the same
nitroreductase more active per mg protein than NAD(P)H dehydrogenase (quinone), initial rates of 4-hydroxylamine formation ([3]; standard conditions): 31.2 fold
nitroreductase more active than NAD(P)H dehydrogenase (quinone) by CB 1954 reduction ([3]; standard conditions): 62 fold
4-hydroxylamine formed ([3]; when 67 μM of CB 1954 was reduced): 33 µM
RELATIVE RATE OF NADH OXIDATION NR [4]: 1.0
% DRUG REDUCTION ([5]; 50 μM CB 1954 alone): < 1.0%
% DRUG REDUCTION ([5]; NADH + CB 1954, no enzyme): < 1.0%
% DRUG REDUCTION [5, 10]: < 1.0%
% DRUG REDUCTION [5, 11]: 72%
kcat for CB 1954 reduction higher for the E. coli nitroreductase than Walker enzyme [6]: 90 fold

COC12C(COC(N)=O)C3=C(C(=O)C(C)=C(N)C3=O)N1CC1C2N1C(=O)OCc1ccc([N+](=O)[O-])cc1 (stereo not drawn) [VII, N-4-Nitrobenzyloxycarbonyl-mitomycin C]
release of mitomycin C from the prodrug [7]: Only in the presence of the enzyme is mitomycin C released

O=C(O)C1=CN([C@@H]2O[C@H](CO)[C@@H](O)[C@H]2O)C=CC1 [1,4-dihydro-nicotinic acid riboside]
ability to act as a cofactor for the reduction of CB 1954 [8]: cannot utilise
ability to act as a cofactor for the reduction of CB 1954 [9]: equal efficiency
